Data reported in patent US9592272B2, “Treatment of osteoarthritis with incretin hormones or analogues thereof” (UNIVERSITE PIERRE ET MARIE CURIE (PARIS 6), priority 2012, dated 2017).

Columns and labels:
[1] = in vivo, iv; cited from earlier work
[2] = test system: MMP-3, MMP-9 and MMP-13 expression in chondrocytes; test: Expression of MMP-3, MMP-9 and MMP-13 in primary chondrocytes in response to IL-1β (real-time quantitative RT-PCR); assay type: cell-based, murine; details: peptide 10 nM; IL-1β 0.1 or 1 ng/ml, 24 h; FIG. 1
Method: (§1) The murine chondrocytes were obtained after enzymatic digestion of femoral heads and knees of 4- to 6-day-old mice. The cells were amplified in a monolayer for 1 week (Gosset et al., 2008).
(§2) The cultures were deprived in a serum-free culture medium for 24 h before treatment.
(§3) The RNAs were extracted using the RNeasy Mini kit (Qiagen) and then reverse-transcribed using the Omniscript kit (Qiagen). The expression level of the genes of interest was quantified by real-time PCR (Light Cycler LC480), relative to the HPRT reference gene, using the following primers: […]

[3] = test system: MMP-3, MMP-9 and MMP-13 expression in osteoblasts; test: Expression of MMP-3, MMP-9 and MMP-13 in primary osteoblasts in response to IL-1β (real-time quantitative RT-PCR); assay type: cell-based, murine; details: peptide 10 nM, IL-1β 0.1 or 1 ng/ml, 24 h; for overexpression of the prodegradative enzymes MMP-3 and MMP-13 in the osteoblasts in response to an IL-1β treatment: FIGS. 2A, B and C
Method: The murine osteoblasts were obtained after enzymatic digestion of the skulls of 4- to 6-day-old mice. The cells were amplified for 3 weeks, in the presence of ascorbic acid and β-glycerophosphate. The osteoblasts at the end of culture formed a three-dimensional membrane (Sanchez et al., 2009).
as §2, §3

[4] = test system: prostaglandin E2 (PGE2) release by chondrocytes; test: Prostaglandin E2 release by chondrocytes in response to IL-1β (EIA on culture supernatants); assay type: cell-based, murine
Method: as §1, §2
The amount of PGE2 produced by the cells was measured by means of the prostaglandin E2 monoclonal EIA kit (Cayman) using the culture supernatants.

[5] = clinical trials (Krzeski et al., 2007); cited from earlier work

overexpression of the prodegradative enzymes MMP-3, MMP-9 and/or MMP-13 in the chondrocytes in response to an IL-1β treatment [2]	overexpression of the prodegradative enzymes MMP-3 and MMP-13 in the osteoblasts in response to an IL-1β treatment [3]	Molecule	half-life time [1]	release of prostaglandin E2 (PGE2) by the chondrocytes in response to an IL-1β treatment ([4]; peptide 10 nM, IL-1β 1 ng/ml, 24 h, FIG. 3)	induction of PGE2 by peptide alone, chondrocytes ([4]; peptide alone, without IL-1β)	overexpression of MMP-9 in the osteoblasts in response to an IL-1β treatment ([3]; FIG. 2D)	toxicity revealed during clinical trials [5]
inhibits	inhibits	GIP (1-42)	approximately 2 minutes				
inhibits	inhibits	GLP-1 (7-36) amide		inhibits	does not induce	inhibits	
		COc1ccc(C(=O)Nc2ccc(S(=O)(=O)NC(CC#CCN3CCOCC3)C(=O)O)cc2)cc1 (centres unmarked) [PG-116800]					musculoskeletal toxicity
inhibits	inhibits	GLP-1 (7-37)					
